# Experiments:
# GluN1–GluN2B^V618G [1] = target: T1, GluN1–GluN2B^V618G (Homo sapiens, UniProt Q05586+Q13224, V618G); test: Ion permeability experiments in Mg2+ or Ca2+ solution, HEK293 cells; type: cell-based; parameters: expressed in transfected cells; host or cells: HEK293; details: −60 mV
# Description: (§1) To assess Mg^2+ permeability the external solution was altered such that Mg^2+ was the only current-carrying cation (Mg^2+ solution). […] The same result was apparent for GluN1–GluN2B^N615I (Fig. 4a; Table 1). […] To assess whether the channel mutants affected Ca^2+ permeation, we modified the external solution to make Ca^2+ the only current-carrying cation[24] (Ca^2+ solution). […] This implied a significant reduction in Ca^2+ permeation for GluN2B^N615I.
# (§2) Cells were voltage clamped at −60 mV.
# GluN1–GluN2B^N615I [2] = target: T2, GluN1–GluN2B^N615I (Homo sapiens, UniProt Q05586+Q13224, N615I); test: as above; type: cell-based; parameters: expressed in transfected cells; host or cells: HEK293; details: −60 mV
# T2 sequence (Q13224 27-1484 N615I, other chains not shown): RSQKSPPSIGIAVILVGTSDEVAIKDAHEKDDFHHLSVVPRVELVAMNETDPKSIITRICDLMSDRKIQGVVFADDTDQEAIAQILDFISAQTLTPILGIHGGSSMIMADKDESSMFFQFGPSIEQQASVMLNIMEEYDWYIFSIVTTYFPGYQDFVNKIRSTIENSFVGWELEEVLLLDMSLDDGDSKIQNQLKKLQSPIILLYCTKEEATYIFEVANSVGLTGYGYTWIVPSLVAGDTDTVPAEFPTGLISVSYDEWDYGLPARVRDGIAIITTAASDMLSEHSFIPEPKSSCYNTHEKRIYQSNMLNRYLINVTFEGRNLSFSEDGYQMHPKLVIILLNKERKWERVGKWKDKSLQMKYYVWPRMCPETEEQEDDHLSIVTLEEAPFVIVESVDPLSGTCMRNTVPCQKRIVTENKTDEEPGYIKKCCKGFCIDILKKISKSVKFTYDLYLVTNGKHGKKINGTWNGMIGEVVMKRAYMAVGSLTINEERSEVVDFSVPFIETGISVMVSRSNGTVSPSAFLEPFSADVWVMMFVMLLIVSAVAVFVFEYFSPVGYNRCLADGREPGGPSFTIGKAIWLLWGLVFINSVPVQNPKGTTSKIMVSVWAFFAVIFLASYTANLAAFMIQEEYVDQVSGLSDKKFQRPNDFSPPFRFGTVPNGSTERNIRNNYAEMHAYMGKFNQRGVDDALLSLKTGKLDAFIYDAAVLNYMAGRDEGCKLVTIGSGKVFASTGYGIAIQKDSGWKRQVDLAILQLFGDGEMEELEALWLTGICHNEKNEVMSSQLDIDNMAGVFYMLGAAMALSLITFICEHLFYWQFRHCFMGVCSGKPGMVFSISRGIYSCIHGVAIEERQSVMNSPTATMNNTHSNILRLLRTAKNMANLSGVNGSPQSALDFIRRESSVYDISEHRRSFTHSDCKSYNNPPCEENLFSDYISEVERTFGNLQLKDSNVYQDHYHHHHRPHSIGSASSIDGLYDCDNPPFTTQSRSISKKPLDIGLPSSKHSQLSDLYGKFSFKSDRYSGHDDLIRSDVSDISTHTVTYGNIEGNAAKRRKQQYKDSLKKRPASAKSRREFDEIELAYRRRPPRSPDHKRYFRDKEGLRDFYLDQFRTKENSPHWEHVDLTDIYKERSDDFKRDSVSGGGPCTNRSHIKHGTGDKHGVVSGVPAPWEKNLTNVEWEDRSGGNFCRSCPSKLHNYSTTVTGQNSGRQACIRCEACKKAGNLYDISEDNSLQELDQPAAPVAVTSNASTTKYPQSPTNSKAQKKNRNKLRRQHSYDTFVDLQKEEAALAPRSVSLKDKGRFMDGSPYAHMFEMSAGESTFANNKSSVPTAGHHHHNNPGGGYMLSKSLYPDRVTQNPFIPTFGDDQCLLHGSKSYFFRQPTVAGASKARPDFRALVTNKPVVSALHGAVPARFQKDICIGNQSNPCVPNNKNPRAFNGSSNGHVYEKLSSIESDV
# Description: as §1, §2
# GluN1–GluN2B^WT [3] = target: T3, GluN1–GluN2B^WT (Homo sapiens, UniProt Q05586+Q13224); test: as above; type: cell-based; parameters: expressed in transfected cells; host or cells: HEK293; details: −60 mV
# Description: as §1, §2
# GluN1-GluN2BA636P = test: Glutamate-activated whole-cell currents in HEK293 cells (mutation screen); details: up to 3 mM glutamate
# Experimental: (§9) All human NMDAR GluN1 (isoforms GluN1–4b[66]) and GluN2B constructs were cloned into the pRK5 expression vector (CMV promoter) with optimised Kozak sequences.
# (§10) Whole-cell currents (in HEK293 cells) and evoked NMDAR-mediated EPSCs (in cultured neurons) were recorded using an AxoPatch 200B amplifier (Molecular Devices, Sunnyvale, CA, USA). […] The experiments using Ca^2+ as the main external ion were performed using a ‘Ca^2+-solution’ containing (mM): 100 CaCl2, 5 HEPES adjusted to pH 7.4 with Ca(OH)2. […] Cells were voltage clamped at −60 mV.
# (§11) The rectification index (Ri) is measured from the current-voltage
# GluN1–GluN2B^N615I [4] = target: T2, GluN1–GluN2B^N615I; test: Glutamate-activated whole-cell currents in HEK293 cells; details: 10 μM glycine
# Experimental: (§12) We used the alternatively spliced GluN1–4b isoform for co-expression with GluN2B.
# as §9, §10, §11
# GluN1-GluN2B R682C = GluN1-GluN2B R682C (Homo sapiens, UniProt Q05586+Q13224, R682C); test: Glutamate-activated whole-cell currents in HEK293 cells (mutation screen); details: saturating glutamate, -30 mV
# Experimental: as §9, §10, §11
# GluN1–GluN2B^V618G [5] = target: T1, GluN1–GluN2B^V618G; test: Glutamate-activated whole-cell currents in HEK293 cells
# Experimental: as §12, §9, §10, §11
# GluN1-GluN2B R540H = GluN1-GluN2B R540H (Homo sapiens, UniProt Q05586+Q13224, R540H); test: Glutamate-activated whole-cell currents in HEK293 cells (mutation screen); details: saturating glutamate, -30 mV
# Experimental: as §9, §10, §11
# GluN1–GluN2B^C461F = GluN1–GluN2B^C461F (Homo sapiens, UniProt Q05586+Q13224, C461F); test: Glutamate-activated whole-cell currents in HEK293 cells
# Sequence of GluN1–GluN2B^C461F (Q13224 27-1484 C461F, other chains not shown): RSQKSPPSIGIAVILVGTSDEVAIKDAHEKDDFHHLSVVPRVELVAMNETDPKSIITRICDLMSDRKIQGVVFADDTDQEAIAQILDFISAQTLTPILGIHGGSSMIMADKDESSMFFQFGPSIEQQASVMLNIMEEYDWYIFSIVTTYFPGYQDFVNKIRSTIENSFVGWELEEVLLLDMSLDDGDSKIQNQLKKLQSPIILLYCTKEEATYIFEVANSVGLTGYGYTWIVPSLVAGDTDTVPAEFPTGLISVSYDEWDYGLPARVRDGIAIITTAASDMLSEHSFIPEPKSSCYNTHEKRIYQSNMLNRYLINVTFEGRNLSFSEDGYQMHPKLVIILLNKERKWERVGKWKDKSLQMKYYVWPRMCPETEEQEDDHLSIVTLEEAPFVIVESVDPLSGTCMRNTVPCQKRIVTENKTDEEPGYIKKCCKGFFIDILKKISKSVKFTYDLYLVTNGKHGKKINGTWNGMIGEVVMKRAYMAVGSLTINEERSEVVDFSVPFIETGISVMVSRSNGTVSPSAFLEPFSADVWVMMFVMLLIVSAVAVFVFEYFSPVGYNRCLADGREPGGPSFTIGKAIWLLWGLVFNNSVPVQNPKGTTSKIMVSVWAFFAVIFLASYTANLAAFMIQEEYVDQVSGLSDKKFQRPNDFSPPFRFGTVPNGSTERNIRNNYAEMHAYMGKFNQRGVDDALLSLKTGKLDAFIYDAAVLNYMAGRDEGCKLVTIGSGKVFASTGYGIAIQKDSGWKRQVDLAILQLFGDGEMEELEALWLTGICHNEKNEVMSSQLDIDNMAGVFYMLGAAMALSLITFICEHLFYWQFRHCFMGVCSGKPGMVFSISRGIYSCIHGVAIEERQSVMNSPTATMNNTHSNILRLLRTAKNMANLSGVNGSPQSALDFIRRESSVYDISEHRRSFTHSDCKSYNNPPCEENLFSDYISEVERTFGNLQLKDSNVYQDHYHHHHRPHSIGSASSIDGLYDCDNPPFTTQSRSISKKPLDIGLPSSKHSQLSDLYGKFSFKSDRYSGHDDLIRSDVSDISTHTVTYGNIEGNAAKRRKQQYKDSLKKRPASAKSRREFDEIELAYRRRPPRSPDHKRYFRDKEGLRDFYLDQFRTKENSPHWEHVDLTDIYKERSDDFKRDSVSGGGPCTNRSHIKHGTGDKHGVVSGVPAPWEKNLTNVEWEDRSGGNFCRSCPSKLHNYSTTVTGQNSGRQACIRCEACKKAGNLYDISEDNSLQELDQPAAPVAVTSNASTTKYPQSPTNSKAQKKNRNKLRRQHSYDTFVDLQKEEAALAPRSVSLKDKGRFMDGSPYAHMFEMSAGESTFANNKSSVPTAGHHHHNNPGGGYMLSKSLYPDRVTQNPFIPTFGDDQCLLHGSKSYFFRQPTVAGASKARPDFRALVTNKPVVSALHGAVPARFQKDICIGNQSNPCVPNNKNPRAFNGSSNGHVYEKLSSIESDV
# Experimental: as §12, §9, §10, §11
# GluN1-GluN2BC456Y = test: Glutamate-activated whole-cell currents in HEK293 cells (mutation screen); details: up to 3 mM glutamate
# Experimental: as §9, §10, §11
# GluN1–GluN2B^WT [6] = target: T3, GluN1–GluN2B^WT; test: Glutamate-activated whole-cell currents in HEK293 cells (concentration–response, current density, desensitisation)
# Experimental: as §12, §9, §10, §11
# GluN1-GluN2B L825V = GluN1-GluN2B L825V (Homo sapiens, UniProt Q05586+Q13224, L825V); test: Glutamate-activated whole-cell currents in HEK293 cells (mutation screen); details: saturating glutamate, -30 mV
# Experimental: as §9, §10, §11
# GluN1–GluN2B^P553L = GluN1–GluN2B^P553L (Homo sapiens, UniProt Q05586+Q13224, P553L); test: Glutamate-activated whole-cell currents in HEK293 cells
# Experimental: as §12, §9, §10, §11
# [7] = system: NMDAR-mediated EPSCs, hippocampal neurons; test: NMDAR-mediated EPSCs in cultured hippocampal neurons, pharmacological characterisation; type: cell-based, rat; details: 3 μM ifenprodil, 13–15 DIV untransfected neurons
# Experimental: The impact of the GluN2B mutations was assessed on neuronal NMDARs by evoking network-driven NMDAR-mediated EPSCs in hippocampal neurons transfected with either wild-type or mutant GluN2B constructs. Hippocampal cultures were superfused with Krebs containing 10 μM CNQX and 20 μM bicuculline to block non-NMDA receptor and GABAA receptor-mediated currents, respectively. […] To obtain phase-locked EPSCs, a loose cell-attached patch electrode was used to serially stimulate presynaptic neurons yielding evoked EPSCs in postsynaptic neurons.
# The relative contributions of GluN2A and GluN2B subunits to NMDAR-mediated currents (at 13–15 DIV) was assessed using the selective antagonists, TCN213 (30 μM, for GluN2A) and ifenprodil (3 μM, for GluN2B).
# (§3) Dissected hippocampi were dissociated from E18 Sprague Dawley rat embryos using procedures and protocols that have been approved by the UK Home Office. They were dissociated into single cells using 0.1% w/v trypsin and serially triturated with flame-polished Pasteur pipettes. […] Neurons were transfected after 10 days in vitro (DIV) with either cDNAs for the GluN2B WT or mutants together with DsRed using Effectene (Qiagen) and recorded at 13–15 DIV.
# as §2
# (§4) NMDAR-mediated EPSCs were evoked by direct stimulation of single neighbouring neurons using a loose cell-attached patch electrode filled with Krebs and containing a bipolar stimulating electrode. […] For the pharmacological characterisation of NMDAR-mediated EPSCs, the selective antagonists ifenprodil (+)-hemitartrate (Santacruz biotechnology) and TCN213 (Tocris) were used.
# (§5) EPSCs were analysed offline using WinWCP (Strathclyde Electrophysiology Software, UK). Peak EPSC amplitude, the area of the EPSC (charge transfer) and EPSC decays were measured. The decay time constants (τ) were determined by fitting the EPSC decays with a double exponential function. The weighted time constant (τw) was calculated using the following equation, where A indicates the relative area of each time constant.3 τw=((A1.τ1)+(A2.τ2))∕A1+A2.
# GluN1–GluN2B^V618G [8] = target: T1, GluN1–GluN2B^V618G; test: Memantine block of glutamate currents in HEK293 cells (concentration–inhibition, I–V, trapping model); type: cell-based; parameters: expressed in transfected cells; host or cells: HEK293
# Experimental: (§6) To examine voltage-dependent block of NMDARs, HEK293 cells were voltage clamped at −30 mV, and currents recorded following a voltage (10 mV) step protocol from −90 to +90 mV. […] The current induced by the agonists was determined by subtracting the leak current before plotting the I–V relationship.
# (§7) To explain the block of the NMDAR we adopted a trapping based model (Table 2) whereby the antagonist can remain bound to its site (e.g. in the channel) after agonist dissociation.
# (§8) The values of k+bo(0 mV) and k+bi(0 mV) were fixed at 5 × 10^7 M^-1 s^-1. […] This allowed k−bo and δMg to be estimated independently. For the permeation model (see below), the same principle was used to define the ion binding rate (k+bi) from the inside of the channel.
# GluN1–GluN2B^N615I [9] = target: T2, GluN1–GluN2B^N615I; test: as above; type: cell-based; parameters: expressed in transfected cells; host or cells: HEK293
# Experimental: as §6, §7, §8
# GluN1–GluN2B^WT [10] = target: T3, GluN1–GluN2B^WT; test: as above; type: cell-based; parameters: expressed in transfected cells; host or cells: HEK293; details: for δMem, fraction of membrane potential sensed by memantine: trapping block model fit
# Experimental: as §6, §7, §8
# [11] = Memantine pKa and ionisation; type: physicochemical
# [12] = system: hippocampal neurons expressing GluN2B^WT; test: Evoked NMDAR-mediated EPSCs in transfected hippocampal neurons; type: cell-based, rat; details: 30 μM memantine, 0 Mg^2+
# Description: as §3, §2, §4, §5
# [13] = system: hippocampal neurons expressing GluN2B^V618G; test: as above; type: cell-based, rat; details: 300 μM memantine, 0 Mg^2+
# Description: as §3, §2, §4, §5
# [14] = system: hippocampal neurons expressing GluN2B^N615I; test: as above; type: cell-based, rat; details: 30 μM memantine, 0 Mg^2+
# Description: as §3, §2, §4, §5
# [15] = Ca^2+ solution (100 mM), 10 μM glutamate and 10 μM glycine
# [16] = current in Ca^2+ solution as % of current in Krebs
# [17] = saturating glutamate, 10 μM glycine, −30 mV
# [18] = after removal of 10 μM glutamate + 10 μM glycine, range of memantine concentrations
# T1 sequence (Q13224 27-1484 V618G, other chains not shown): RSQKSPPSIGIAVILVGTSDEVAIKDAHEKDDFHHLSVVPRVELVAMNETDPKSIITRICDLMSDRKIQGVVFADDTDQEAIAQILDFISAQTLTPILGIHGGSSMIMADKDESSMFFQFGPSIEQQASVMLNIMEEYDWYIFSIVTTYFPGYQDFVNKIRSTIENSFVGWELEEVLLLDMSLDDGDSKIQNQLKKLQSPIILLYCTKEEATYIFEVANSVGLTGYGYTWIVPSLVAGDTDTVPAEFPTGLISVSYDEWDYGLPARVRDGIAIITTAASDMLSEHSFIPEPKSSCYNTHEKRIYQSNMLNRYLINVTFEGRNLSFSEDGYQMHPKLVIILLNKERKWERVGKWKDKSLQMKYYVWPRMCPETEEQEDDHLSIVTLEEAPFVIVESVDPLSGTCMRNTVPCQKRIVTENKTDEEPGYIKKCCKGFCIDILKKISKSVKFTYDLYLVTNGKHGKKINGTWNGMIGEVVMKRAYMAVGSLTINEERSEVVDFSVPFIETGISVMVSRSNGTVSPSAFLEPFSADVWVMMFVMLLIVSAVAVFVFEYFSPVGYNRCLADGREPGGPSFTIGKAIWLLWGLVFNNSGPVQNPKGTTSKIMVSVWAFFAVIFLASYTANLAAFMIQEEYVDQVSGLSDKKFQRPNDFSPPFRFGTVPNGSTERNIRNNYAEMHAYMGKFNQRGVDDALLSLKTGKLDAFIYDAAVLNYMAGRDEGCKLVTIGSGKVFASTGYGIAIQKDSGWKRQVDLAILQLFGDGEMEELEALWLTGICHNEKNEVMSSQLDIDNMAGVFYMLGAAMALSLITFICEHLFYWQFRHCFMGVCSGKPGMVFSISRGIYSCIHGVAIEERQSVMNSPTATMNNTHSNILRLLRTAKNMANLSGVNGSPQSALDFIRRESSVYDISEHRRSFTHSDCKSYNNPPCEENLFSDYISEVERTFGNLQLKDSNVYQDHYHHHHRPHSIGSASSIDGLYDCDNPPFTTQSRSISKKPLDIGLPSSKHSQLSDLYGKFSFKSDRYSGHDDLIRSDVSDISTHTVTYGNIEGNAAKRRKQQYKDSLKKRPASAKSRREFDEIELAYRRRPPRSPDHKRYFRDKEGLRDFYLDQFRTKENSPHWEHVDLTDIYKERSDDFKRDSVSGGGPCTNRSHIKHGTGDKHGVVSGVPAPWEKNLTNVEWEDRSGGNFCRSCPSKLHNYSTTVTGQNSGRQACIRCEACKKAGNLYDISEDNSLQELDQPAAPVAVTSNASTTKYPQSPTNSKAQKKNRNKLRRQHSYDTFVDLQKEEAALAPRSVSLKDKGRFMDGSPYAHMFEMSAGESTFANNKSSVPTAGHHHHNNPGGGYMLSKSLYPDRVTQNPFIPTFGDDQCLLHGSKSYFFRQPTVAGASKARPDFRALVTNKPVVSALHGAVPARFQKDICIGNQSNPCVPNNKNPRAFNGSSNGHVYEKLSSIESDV
smiles,measurement,setting,value
[Ca+2] [Ca^2+],ICa current density,GluN1–GluN2B^V618G [1]; [15],−5.00 ± 0.64 pA/pF
same,ICa/IKrebs,GluN1–GluN2B^V618G [1]; [16],46.28 ± 3.18%
same,ICa current density,GluN1–GluN2B^N615I [2]; [15],−0.47 ± 0.10 pA/pF
same,ICa/IKrebs,GluN1–GluN2B^N615I [2]; [16],11.07 ± 1.04%
same,ICa current density,GluN1–GluN2B^WT [3]; [15],−7.08 ± 2.12 pA/pF
same,ICa/IKrebs,GluN1–GluN2B^WT [3]; [16],52.83 ± 1.07%
N[C@@H](CCC(=O)O)C(=O)O [glutamate],Glutamate current,GluN1-GluN2BA636P,No glutamate current was detected
same,Hill slope (n) of glutamate concentration–response curve,GluN1–GluN2B^N615I [4],1.27 ± 0.13
same,Glutamate current density (maximal current/cell capacitance),GluN1-GluN2B R682C,-15.34 ± 2.56 pA/pF
same,Hill slope (n) of glutamate concentration–response curve,GluN1–GluN2B^V618G [5]; 10 μM glycine,1.23 ± 0.12
same,Glutamate current density (maximal current/cell capacitance),"GluN1–GluN2B^V618G [5]; saturating glutamate, -30 mV",-17.55 ± 3.35 pA/pF
same,Glutamate current density (maximal current/cell capacitance),GluN1-GluN2B R540H,-30.31 ± 7.71 pA/pF
same,Hill slope (n) of glutamate concentration–response curve,GluN1–GluN2B^C461F; 10 μM glycine,1.44 ± 0.03
same,Glutamate current density (maximal current/cell capacitance),"GluN1–GluN2B^C461F; saturating glutamate, -30 mV",-6.49 ± 3.94 pA/pF
same,Reduction of glutamate potency compared to wild-type,GluN1–GluN2B^C461F; vs GluN1–GluN2B WT,71 fold
same,Glutamate current,GluN1-GluN2BC456Y,No glutamate current was detected
same,Hill slope (n) of glutamate concentration–response curve,GluN1–GluN2B^WT [6]; 10 μM glycine,1.45 ± 0.12
same,Glutamate current desensitisation decay τ,GluN1–GluN2B^WT [6]; [17],21.17 ± 0.31 s
same,Glutamate current density (maximal current/cell capacitance),"GluN1–GluN2B^WT [6]; saturating glutamate, -30 mV",-20.36 ± 4.54 pA/pF
same,Glutamate current density (maximal current/cell capacitance),GluN1-GluN2B L825V,-19.06 ± 3.65 pA/pF
same,Hill slope (n) of glutamate concentration–response curve,GluN1–GluN2B^P553L; 10 μM glycine,0.89 ± 0.05
same,Glutamate current desensitisation decay τ,GluN1–GluN2B^P553L; [17],420.3 ± 30.1 ms
same,Glutamate current density (maximal current/cell capacitance),"GluN1–GluN2B^P553L; saturating glutamate, -30 mV",-15.31 ± 3.70 pA/pF
same,Reduction of glutamate potency compared to wild-type,GluN1–GluN2B^P553L; vs GluN1–GluN2B WT,1.7 fold
"CC(C(O)c1ccc(O)cc1)N1CCC(Cc2ccccc2)CC1 (stereo not drawn) [Ifenprodil, ifenprodil (+)-hemitartrate]",Decrease of EPSC decay time,[7],30%
same,Effect on peak EPSC amplitude,[7],reduced the peak EPSC amplitude
"CC12CC3CC(C)(C1)CC(N)(C3)C2 [Memantine, memantine]",Effect of memantine on deactivation time constant (τ),GluN1–GluN2B^V618G [8]; [18],did not affect
same,"δMem, fraction of membrane potential sensed by memantine",GluN1–GluN2B^V618G [8]; trapping block model fit,0.42 ± 0.03
same,Effect of memantine on deactivation time constant (τ),GluN1–GluN2B^N615I [9]; [18],did not affect
same,"δMem, fraction of membrane potential sensed by memantine",GluN1–GluN2B^N615I [9]; trapping block model fit,0.42 ± 0.11
same,Effect of memantine on deactivation time constant (τ),GluN1–GluN2B^WT [10]; [18],did not affect
same,"δMem, fraction of membrane potential sensed by memantine",GluN1–GluN2B^WT [10],0.65 ± 0.026
same,"δMem, fraction of membrane potential sensed by memantine",GluN1–GluN2B^WT [10]; listed as memantine,0.65 ± 0.03
same,Fraction charged at physiological pH,[11],99.95%
same,Inhibition of peak EPSC amplitude and charge transfer by memantine,[12],inhibited to a comparable extent
same,Inhibition of peak EPSC amplitude and charge transfer by memantine,[13],inhibited to a comparable extent
same,Inhibition of peak EPSC amplitude and charge transfer by memantine,[14],inhibited to a comparable extent

# Reference: PMC5840332, “Disease-associated missense mutations in GluN2B subunit alter NMDA receptor ligand binding and ion channel properties” (Nature Communications, 2018)
